# Assay results reported in US10555919B2, “Melatonin in autoimmune disease” (The Brigham and Women's Hopsital, Inc., priority 2014, dated 2020).
# Assays:
# CD4+ T cells = assay: Flow cytometry of T cell subsets from spleen, lymph nodes and CNS of EAE mice; assay type: in vivo, C57BL/6 wild-type mice; conditions: melatonin 5 mg/kg daily
# Procedure: For intracellular cytokine staining, cells were stimulated for 4 h at 37° C. with phorbol 12-myristate 13-acetate (50 ng/ml; Sigma), ionomycin (1 μg/ml; Sigma) and monensin (GolgiStop; 1 μg/ml; BD Biosciences). After being stained for surface markers, cells were fixed and made permeable according to the manufacturer's instructions (BD Biosciences). All antibodies against cytokines were from Biolegend. All experiments were started at the same time (8-9 am). Data were collected with a LSR II or FACSAria (BD Biosciences), then were analyzed with FlowJo software (Treestar). CNS infiltrates were isolated as described (Mascanfroni et al., 2013). Mice were perfused with ice-cold PBS. The brain and spinal cord were removed and incubated in PBS containing collagenase type III (2 mg/ml; Worthington) and DNase (20 units/ml; Sigma-Aldrich). Tissues were then homogenized and loaded on a 30%-37%-70% Percoll gradient for enrichment of CNS infiltrates. Based on our epidemiological findings, we studied the effects of melatonin on CNS inflammation using the experimental autoimmune […] (EAE) model of MS. Naïve C57BL/6 wild-type mice were immunized with MOG35-55 and treated daily with melatonin (5 mg/kg, intraperitoneally) or vehicle. Melatonin administration ameliorated EAE clinical symptoms (FIG. 2a, Table 2 and FIG. 7a).
# [1] = system: human CD4+ T cells activated under Tr1 polarizing conditions; assay: In vitro human Tr1 differentiation; assay type: cell-based; conditions: 500 ng/ml
# Text: We then studied the effects of melatonin on human CD4^+ T cells. In addition, we also analyzed the effects of agomelatine, which activates melatonin-dependent signaling (Hickie and Rogers, 2011). Based on the effects of melatonin administration on T cells during EAE, we focused our studies on human Th17 and Tr1 cells. Melatonin and agomelatine reduced the production of IL-17, RORC and IL17A expression by human CD4^+ T cells activated under Th17 polarizing conditions (FIGS. 3a-c and FIG. 8), no effect was detected on the differentiation of human Th1 cells (FIGS. 3d-f). Concomitantly, melatonin and agomelatine increased IL10 expression.
# 2D2+ transgenic T cells = assay: In vitro activation of naive 2D2+ transgenic T cells / CD4+ T cells (MOG35-55 and DCs or anti-CD3 and anti-CD28); assay type: cell-based, mice
# [2] = system: nr1d1 reporter-transfected HEK293 cells; assay: nr1d1 promoter luciferase reporter assay; assay type: cell-based; conditions: nr1d1 promoter controls luciferase expression
# Text: The IL-10 promoter reporter and C-Maf and AhR vectors were previously described (Apetoh et al., 2010), vector expressing ROR-α were purchased from PlasmID at Harvard Medical School. Vectors coding for C/EBPα (44627) and Bmal reporter (46824) were purchased from Addgene. The retrovirus used for nfil3 overexpression in T cells was graciously provided by Laura Hooper (UT Southwestern, TX, USA). The retrovirus used for nr1d1 overexpression in T cells was graciously provided by Bart Staels (Institut Pasteur, Lille, France, […]). The nr1d1 promoter reporter was graciously provide by Vincent Laudent (Ecole Normale Supérieure, Lyon, France).
# HEK293 cells were grown in DMEM supplemented with 10% FBS and were transfected with FuGENE HD transfection reagent and 2 μg of each plasmids according the manufacturer's instructions (Roche). Firefly and renilla luciferase activity was analyzed 48 h after transfection and 24 h after treatment with a Dual Luciferase Assay kit (Promega).
# [3] = system: FoxP3+ iTregs, Th1 or Th2 cells; assay: In vitro mouse differentiation of FoxP3+ iTregs, Th1 or Th2 cells; assay type: cell-based; conditions: melatonin 2 ng/ml, 3 days
# Procedure: Naive CD4+ T cells (CD4+CD44loCD62LhiCD25−) were from the spleen and lymph node of C57BL/6 wild-type, MTNR1A−, NFIL3−, REV-ERBα, C/EBPα-deficient or RORα-deficient mice using magnetic beads (CD4+ T cell isolation kit, Miltenyi Biotec). All experiments were started between 7 and 9 am. Cells were activated with plate-bound anti-CD3 (2 μg/ml; 14-0031-86; eBioscience) and anti-CD28 (2 μg/ml; 16-0281-86; eBioscience). Mouse IL-27 (30 ng/ml; 34-8271; Biolegend) was added for the generation of Tr1 cells. IL-6 (30 ng/ml; 406-ML-025; R&D Systems), TGF-β1 (15 ng/ml; 130-095-067; […] C17.8; Biolegend) and anti-IFN-γ (5 μg/ml; XMG1.2; Biolegend) were added for the generation of Th17 cells. Recombinant mouse IL-23 (30 ng/ml; 1887-ML-010; R&D Systems) was added at day 2. For some experiments IL-6 and […] (10 ng/ml; 401-ML-025; R&D Systems) or TGF-β1 and IL-21 (100 ng/ml; 594-ML-010; R&D Systems) were used in instead for Th17 cell differentiation. IL-12 (30 ng/ml; 419-ML-010; […] C17.8; Biolegend) were used for the generation of Th1 cells. IL-4 (30 ng/ml; 404-ML-010; R&D Systems) and anti-IFN-γ (5 μg/ml; XMG1.2; Biolegend) was added for the generation of Th2 cells. TGF-β1 (15 ng/ml; 130-095-067; Miltenyi Biotec) was used for the generation of Foxp3+ Tregs.
# human Th1 cells = assay: In vitro human Th1 differentiation; assay type: cell-based; conditions: 500 ng/ml; IL-12
# Procedure: In vitro human T cell differentiation. For Th17 differentiation, naive CD45RA+ CD4+ T cells were isolated from PBMCs with magnetic beads (Naive Human CD4+ T Cell Isolation Kit II, Miltenyi Biotec) and seeded at a density of 5×10^5 cells/ml in 24-well plates coated with anti-CD3 and (2 μg/ml) and soluble anti-CD28 and cultured in the presence of the following cytokines IL-1β (25 ng/ml), IL-6 (50 ng/ml), and TGF-β1 (2 ng/ml) and neutralizing antibodies to IFN-g ([…]) and IL-4 (10 microgram/ml). Alternatively, Th17 cells were differentiated by using IL-1β (25 ng/ml), IL-6 (50 ng/ml), and IL-23 (50 ng/ml) and neutralizing antibodies to IFN-g ([…]) and IL-4 (10 microgram/ml). For Th1 differentiation naïve CD4+T cells are cultured in the presence of IL-12 (20 ng/ml) and anti-IL-4 (10 μg/ml).
smiles,measurement,setting,value
"COc1ccc2[nH]cc(CCNC(C)=O)c2c1 [Melatonin, N-Acetyl-5-methoxytryptamine]",IL-10 secreting CD4+ T cells,CD4+ T cells,increase
same,"number and frequency of Th17 cells in spleen, lymph nodes and CNS",CD4+ T cells,decreased number and frequency
same,"number or frequency of other T cell subsets, B cells, γδ T cells or innate lymphoid cells (ILCs)",CD4+ T cells,no significant changes
same,IL-10 production,[1],increased
same,ability of melatonin-pretreated DCs to activate 2D2+ T cells,2D2+ transgenic T cells; in the presence of MOG35-55,did not affect
same,"apoptosis in CD4+ T cells (annexin V and propidium iodide staining, Bcl-xl levels)","2D2+ transgenic T cells; stimulated with antibodies against CD3 and CD28, 3 days",did not increase
same,in vitro activation of naive 2D2+ transgenic T cells,2D2+ transgenic T cells; with MOG35-55 and DCs or with antibodies to CD3 and CD28 in the absence of DCs,suppressed
same,luciferase activity,[2],decreased
same,"differentiation of FoxP3+ iTregs, Th1 or Th2 cells",[3],no effects
same,differentiation of human Th1 cells,human Th1 cells,no effect
